Source: PubChem BioAssay (NCI)
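Here, GI50 denotes the concentration required for 50% inhibition of growth. Definition used: TGI = concentration required for complete inhibition of growth.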

How the values were obtained:
Experiment in all cases: growth of human tumour cells (NCI), 384-well format
[1] = test system: CAKI-1 renal
[2] = test system: OVCAR-4 ovarian
[3] = test system: OVCAR-3 ovarian
[4] = test system: SN12C renal
[5] = test system: IGROV1 ovarian
[6] = test system: BT-549 breast
[7] = test system: TK-10 renal
[8] = test system: NCI-H23 lung
[9] = test system: KM12 colon
[10] = test system: HS 578T breast
[11] = test system: MALME-3M melanoma
[12] = test system: EKVX NSCLC
[13] = test system: NCI-H522 lung
[14] = test system: SF-295 CNS
[15] = test system: SF-268 CNS
[16] = test system: SNB-75 CNS
[17] = test system: COLO 205 colon
[18] = test system: U251 glioblastoma
[19] = test system: HOP-92 NSCLC
[20] = test system: LOX IMVI melanoma
[21] = test system: SR leukemia
[22] = test system: ACHN renal
[23] = test system: DU-145 prostate
[24] = test system: HL-60(TB) leukemia
[25] = test system: K-562 leukemia
[26] = test system: MOLT-4 leukemia
[27] = test system: SF-539 CNS
[28] = test system: M14 melanoma
[29] = test system: CCRF-CEM leukemia
[30] = test system: UO-31 renal
[31] = test system: HCT-15 colon
[32] = test system: PC-3 prostate
[33] = test system: 786-0 renal
[34] = test system: HT29 colon
[35] = test system: MDA-MB-468 breast
[36] = test system: SK-MEL-2 melanoma
[37] = test system: MCF7 breast
[38] = test system: UACC-257 melanoma
[39] = test system: A549 NSCLC
[40] = test system: RPMI-8226 leukemia
[41] = test system: OVCAR-8 ovarian
[42] = test system: SK-OV-3 ovarian
[43] = test system: SK-MEL-5 melanoma
[44] = test system: HOP-62 NSCLC
[45] = test system: NCI-H460 NSCLC
[46] = test system: HCT-116 colon
[47] = test system: MDA-MB-435 melanoma

Structure (SMILES): N#Cc1cnc(Nc2cc(NC[C@H]3CNCCO3)c(C(F)(F)F)cn2)cn1
- GI50 [1]: 12.2 µM
- TGI [1]: 53.8 µM
- GI50 [2]: 1.86 µM
- TGI [2]: 34.4 µM
- GI50 [3]: 9.42 µM
- TGI [3]: 25.4 µM
- GI50 [4]: 18.3 µM
- TGI [4]: 38.5 µM
- GI50 [5]: 9.13 µM
- TGI [5]: 47.6 µM
- GI50 [6]: 0.377 µM
- TGI [6]: 1.71 µM
- GI50 [7]: 1.14 µM
- TGI [7]: 10.2 µM
- GI50 [8]: 0.508 µM
- TGI [8]: 12.3 µM
- GI50 [9]: 1.67 µM
- TGI [9]: 18 µM
- GI50 [10]: 0.337 µM
- TGI [10]: 2.22 µM
- GI50 [11]: 7.25 µM
- TGI [11]: 22.9 µM
- GI50 [12]: 14.5 µM
- TGI [12]: 34 µM
- GI50 [13]: 13.6 µM
- TGI [13]: 26.9 µM
- GI50 [14]: 0.946 µM
- TGI [14]: 4.12 µM
- GI50 [15]: 14.4 µM
- TGI [15]: 30.1 µM
- GI50 [16]: 14.7 µM
- TGI [16]: 27.9 µM
- GI50 [17]: 15.3 µM
- TGI [17]: 34.4 µM
- GI50 [18]: 17.4 µM
- TGI [18]: 39.7 µM
- GI50 [19]: 0.504 µM
- TGI [19]: 9.53 µM
- GI50 [20]: 14.9 µM
- TGI [20]: 32.6 µM
- GI50 [21]: 0.0572 µM
- TGI [21]: 0.186 µM
- GI50 [22]: 0.305 µM
- TGI [22]: 1.22 µM
- GI50 [23]: 5.48 µM
- TGI [23]: 19.4 µM
- GI50 [24]: 0.625 µM
- TGI [24]: 1.76 µM
- GI50 [25]: 0.58 µM
- TGI [25]: 2.23 µM
- GI50 [26]: 0.404 µM
- TGI [26]: 1.34 µM
- GI50 [27]: 0.38 µM
- TGI [27]: 1.18 µM
- GI50 [28]: 0.292 µM
- TGI [28]: 0.785 µM
- GI50 [29]: 0.333 µM
- TGI [29]: 0.976 µM
- GI50 [30]: 0.588 µM
- TGI [30]: > 100 µM
- GI50 [31]: 5.16 µM
- TGI [31]: > 65.1 µM
- GI50 [32]: 16.4 µM
- TGI [32]: 40.3 µM
- GI50 [33]: 1.59 µM
- TGI [33]: 15.2 µM
- GI50 [34]: 20.6 µM
- TGI [34]: > 74.7 µM
- GI50 [35]: 13.9 µM
- TGI [35]: 27.2 µM
- GI50 [36]: 10.8 µM
- TGI [36]: 22.7 µM
- GI50 [37]: 0.728 µM
- TGI [37]: 20.7 µM
- GI50 [38]: 17.6 µM
- TGI [38]: 31.8 µM
- GI50 [39]: 21.5 µM
- TGI [39]: > 100 µM
- GI50 [40]: 1.21 µM
- TGI [40]: 5.28 µM
- GI50 [41]: 1.66 µM
- TGI [41]: 22.2 µM
- GI50 [42]: 2.33 µM
- TGI [42]: 11 µM
- GI50 [43]: 2.97 µM
- TGI [43]: 16 µM
- GI50 [44]: 3.75 µM
- TGI [44]: 16.8 µM
- GI50 [45]: 8.14 µM
- TGI [45]: 21 µM
- GI50 [46]: 17.5 µM
- TGI [46]: 47.5 µM
- GI50 [47]: 1.77 µM
- TGI [47]: 10.5 µM
